The values that follow come from PMC3743770, “A Selective HDAC 1/2 Inhibitor Modulates Chromatin and Gene Expression in Brain and Alters Mouse Behavior in Two Mood-Related Tests” (PLoS ONE, 2013).

Data set [1] is described as follows: Mouse brain pharmacokinetics. The data set is classed as in vivo. The method, then:
Plasma, brain samples, and dose formulations, were analyzed as previously described using high performance liquid chromatography/mass spectrometry. Data acquisition and control system were created using Analyst 1.4 software (ABI Inc, Canada).

For data set [2], the system named is C57BL/6 mice. In words: Amphetamine-induced hyperlocomotion (AIH). The data set is classed as in vivo, mouse. The note with it: chronic i.p.; Cpd-60 45 mg/kg, SAHA 25 mg/kg; vs vehicle; amphetamine 3.5 mg/kg. The method, then:
Compounds were administered between 9 am and 1 pm for 7 days prior to the start of behavioral testing, and after completion of each daily session during behavioral testing. Testing was performed 18–24 hr after the previous treatment to avoid transient effects. Amphetamine-induced hyperlocomotion (AIH) was performed as previously described on days 7–9 of treatment with activity measured before and after amphetamine challenge (AccuScan Instruments, Inc.). Forced-swim test (FST) behavior was performed as previously described on day 10 of treatment and total time spent immobile during a 6 min session was scored automatically (Ethovision; Noldus). Treatment effects were analyzed by one way analysis of variance (ANOVA) with post hoc analysis using Least Squared Differences test (SPSS v18.0 IBM).

The subject of data set [3] is transcripts in PFC, NAc and HIP. Nature of the data set: Whole genome transcript profiling of brain regions (microarray). Type of data set: in vivo, mouse. The method, then:
Frozen mouse brains (n = 6/treatment group) were rapidly dissected at 4°C to isolate medial prefrontal cortex (PFC), nucleus accumbens (NAc) and hippocampus (HIP) for mRNA extraction. Whole genome transcript profiling was performed using the Illumina MouseWG-6 Expression BeadChip with subsequent validation by quantitative real-time PCR (qPCR) and is available online at the NCBI Gene Expression Omnibus repository (GSE47452).
Frozen mouse brains (n = 6/ treatment group) were rapidly dissected at 4°C, isolating medial prefrontal cortex, nucleus accumbens and hippocampus. […] For microarray experiments on Illumina MouseWG-6 BeadChips, RNA samples were pooled from two biological replicates such that the total number of samples was 27 (3 treatment groups x 3 brain regions x 3 RNA pools representing two mice per pool). All microarray analysis and gene set analysis (GSA) was performed using GeneSpring software (v.11.5.1) with raw signals adjusted using quantile normalization and baseline transformation with the median signal in all samples set to zero. Data were included in subsequent analyses if the normalized signal, thresholded at 0.8, was ‘present’ for 3 of 3 replicates for like treatment and tissue groups. […] Primer sequences for qPCR validation were designed using NCBI PRIMER-BLAST (Table S2).

The target of data set [4] is T1, HDAC8 (Homo sapiens, UniProt Q9BY41).
T1 sequence (Q9BY41 1-377): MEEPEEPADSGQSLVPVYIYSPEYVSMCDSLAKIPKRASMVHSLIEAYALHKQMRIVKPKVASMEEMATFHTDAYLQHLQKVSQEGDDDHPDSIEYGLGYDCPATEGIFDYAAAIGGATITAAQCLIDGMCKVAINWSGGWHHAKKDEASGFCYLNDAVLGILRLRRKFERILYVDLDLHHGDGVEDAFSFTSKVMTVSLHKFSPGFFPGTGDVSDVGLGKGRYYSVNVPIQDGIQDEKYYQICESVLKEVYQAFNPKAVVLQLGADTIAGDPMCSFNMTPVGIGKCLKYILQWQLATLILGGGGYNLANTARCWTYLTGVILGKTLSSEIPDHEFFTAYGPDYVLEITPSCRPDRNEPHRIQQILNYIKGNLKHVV
In words: HDAC inhibition assay, recombinant enzyme, Caliper EZ reader.

For data set [5], the target named is T2, HDAC7 (Homo sapiens, UniProt Q8WUI4).
T2 sequence (Q8WUI4 1-952): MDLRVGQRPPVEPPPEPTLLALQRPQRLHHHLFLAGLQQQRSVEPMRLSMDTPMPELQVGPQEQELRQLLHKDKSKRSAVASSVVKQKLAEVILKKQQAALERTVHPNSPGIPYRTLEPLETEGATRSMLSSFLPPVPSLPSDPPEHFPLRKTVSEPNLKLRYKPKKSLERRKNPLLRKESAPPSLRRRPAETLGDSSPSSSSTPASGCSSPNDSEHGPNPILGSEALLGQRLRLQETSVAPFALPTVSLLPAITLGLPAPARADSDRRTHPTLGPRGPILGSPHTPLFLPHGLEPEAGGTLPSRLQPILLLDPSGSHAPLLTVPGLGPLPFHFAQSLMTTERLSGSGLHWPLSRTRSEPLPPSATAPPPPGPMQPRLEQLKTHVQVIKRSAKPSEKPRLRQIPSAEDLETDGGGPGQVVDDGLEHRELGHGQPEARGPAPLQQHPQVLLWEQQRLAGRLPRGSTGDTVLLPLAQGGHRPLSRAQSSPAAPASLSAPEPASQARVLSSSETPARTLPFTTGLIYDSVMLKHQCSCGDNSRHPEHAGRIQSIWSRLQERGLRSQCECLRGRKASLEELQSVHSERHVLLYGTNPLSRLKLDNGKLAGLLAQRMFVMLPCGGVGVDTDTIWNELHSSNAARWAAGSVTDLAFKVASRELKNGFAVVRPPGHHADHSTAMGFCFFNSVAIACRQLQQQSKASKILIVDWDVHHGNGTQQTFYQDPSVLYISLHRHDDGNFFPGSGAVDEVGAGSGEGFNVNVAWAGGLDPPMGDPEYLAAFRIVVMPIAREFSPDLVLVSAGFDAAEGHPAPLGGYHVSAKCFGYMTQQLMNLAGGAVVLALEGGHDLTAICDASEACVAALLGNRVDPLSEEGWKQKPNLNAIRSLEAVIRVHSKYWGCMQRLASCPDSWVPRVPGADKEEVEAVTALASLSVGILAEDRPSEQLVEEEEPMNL
Described as above.

One may read the IC50 as the concentration needed to halve the response being measured. On to `CC(=O)Nc1ccc(C(=O)Nc2cc(-c3cccs3)ccc2N)cc1` [Cpd-60], for which the concentration at 8 hr in data set [1] (C57BL/6, mouse, brain, intraperitoneal, 45 mg/kg, systemic treatment, read-out: brain concentration maintained for at least 8 hr) was greater than 100 nM. The Cmax in data set [1] (C57BL/6, mouse, brain, ip, 45 mg/kg, read-out: brain maximum concentration (Cmax)) was 830 nM. The half-life in data set [1] (C57BL/6, mouse, brain, ip, read-out: brain T1/2 (converted)) is 6.44 h. Also, the “time to peak brain concentration” value in data set [1] (systemic treatment) was no more than 5 min. The “reduction of amphetamine-induced hyperlocomotion” value in data set [2] is on record as 36%. Further, the “overlap with the 121 transcripts modulated by lithium” value in data set [3] (Gene Set Enrichment Analysis) was found to be 11. Moreover, the “transcripts altered across the three regions” value in data set [3] (PFC, NAc, HIP compiled, ≥[…] vs vehicle) is 390. Moreover, in data set [3] (Tukey's HSD p<0.05 vs vehicle), the “transcripts up- or down-regulated, summed across the three brain regions” value was found to be 1609. The half-inhibitory concentration (IC50) in data set [4] and in data set [5] was greater than 30 µM throughout.
